For data set [1], the system named is mouse embryonic cortical neurons. The data set can be described thus: Aβ1-42-induced degeneration of embryonic cortical neurons, TuJ1 immunofluorescence. In kind it is cell-based. The settings on record: Aβ1-42 with MABT for four days. The procedure:
FIG. 2 provides graphs and immunocytochemical images corresponding to the experiments described in Example 6.3. […] An MTT assay was used to determine cell viability as described in the Methods section. The means (±SEM) of five independent experiments are shown. *P<0.05, **P<0.01. […] Neurotoxicity following extended Aβ1-42 oligomer treatment was tested by morphological analyses (C).
A non-specific IgG monoclonal antibody was used as a control in all experiments.
The cytotoxicity of Aβ1-42 oligomers was tested on mixed cortical cultures at DIV 5. All antibodies, at a final concentration of 100 μg/mL, were co-incubated with Aβ1-42 oligomers for 30 min in serum-free cell culture medium at 37° C. before treatment of cells. For some experiments, mixed cortical cultures were pre-treated for 1 h with 1 μM SB239063, a potent second-generation p38 inhibitor, before treatment with Aβ1-42 oligomers. […] Briefly, for the last 3 h of treatment, cells grown in 96-well plates (Costar) were incubated with the MTT dye solution and the generation of a blue formazan product was measured by reading absorbance at 570 and 690 nm using a plate reader (Tecan). […] A FITC-labeled secondary antibody was used to visualize microtubules using fluorescence microscopy.

Data set [2] concerns amyloid plaques in human AD brain sections. The data set can be described thus: Immunohistochemistry of amyloid plaques in human AD brain sections. It is filed as binding. An excerpt:
Paraffin mounted temporal lobe brain sections (20 μm) from an AD patient and from an age-matched non-AD control (Tissue Solutions, Clydebank, UK) were used for immunohistochemistry staining. […] A goat-anti-human biotinylated IgG was used as a secondary antibody. Staining was done with diaminobenzidin (Dako, Glostrup, Denmark) and mounting using Eukitt mounting medium. Images were acquired on a LSM 700 inverted microscope from Zeiss.

In data set [3] the test system is Aβ plaques in the brains of transgenic mice expressing hAPP. Put plainly: Immunostaining of Aβ plaques in brain sections of hAPP transgenic mice. It is filed as binding. Conditions: hAPP transgenic mouse brain sections. An excerpt:
(§1) FIG. 1 provides graphs and immunohistochemical images corresponding to the experiments described in Example 6.1 and 6.2. […] As a control, an anti-Aβ IgG monoclonal antibody with a N-terminal epitope was used. […] The mean (±SEM) of two assays is shown.

Data set [4] concerns Aβ1-42. Put plainly: Aβ ELISA, binding to Aβ peptides and Aβ1-42 assembly states. Conditions: Aβ ELISA; human and murine Aβ1-42 and human Aβ1-40. More on the design: species or system human.
From the text: as §1
(§2) Murine anti-Aβ monoclonal antibodies were generated by immunizing mice with an Aβ peptide antigen using a liposomal vaccine formulation as previously described (Muhs et al., 2007). Several criteria were used to select candidate antibodies, including the ability to bind multiple Aβ species and to inhibit Aβ1-42 assembly into small cytotoxic peptide aggregates. A monoclonal murine mAb with an IgG2b backbone (mMABT) was selected for in vivo functionality studies using both single-transgenic murine mutant human APP and double-transgenic murine mutant human APP/PS1 models of Alzheimer's Disease. […] These ranged from monomeric and oligomeric Aβ1-42 fractions isolated by size-exclusion chromatography (SEC), mature Aβ1-42 fibers, to a more complex mixture of highly neurotoxic Aβ1-42 oligomer assemblies, ranging in size from dimers and trimers to higher molecular-weight multimers (see FIG. 8).
A general note: ELISA stands for enzyme-linked immunosorbent assay.

In data set [5] the target is Aβ1-42 (Homo sapiens, UniProt P05067). Described as above. Conditions: ELISA; monomeric, oligomeric, fibers, oligomer assemblies. More on the design: purchased Bachem.
From the text: as §1, §2

In data set [6] the target is Aβ1-42 binding to recombinant human ApoE4 (Homo sapiens, UniProt P05067). Put plainly: ELISA of Aβ1-42 binding to recombinant human ApoE4. In kind it is biochemical. The settings on record: saturating concentrations of ApoE4 and Aβ1-42. An excerpt: FIG. 9 provides a graph corresponding to the experiments described in Example 6.2. […] Percent inhibition of signal without an IgG monoclonal antibody is shown. […] The interaction site of ApoE4 with Aβ1-42 requires amino acids 18 to 28 (Strittmatter et al., 1993).

For another data set, the system named is enriched microglia. Put plainly: TNFα release by enriched microglia. In kind it is cell-based, rat. The settings on record: 24 h of treatment. Here is the method:
FIG. 6 provides a graph corresponding to the experiments described in Example 6.6. […] The release of TNFα by enriched microglia was measured following 24 h of treatment (see Methods). The mean (±SEM) of three independent experiments is shown. Statistical analysis was done using one-way ANOVA followed by Tukey post-hoc multiple comparison.
To link the increased microglia activity more directly to a downstream pro-inflammatory readout, the TNFα release by primary cell cultures enriched for microglia was measured ([…] Iba1^+, not shown). The release of pro-inflammatory TNFα by enriched microglia when treated with Aβ1-42 oligomers was reduced in the presence of all anti-Aβ monoclonal antibodies tested (FIG. 6). […] Thus, an anti-Aβ IgG4 monoclonal antibody may have a more desirable profile as compared to an anti-Aβ IgG1 monoclonal antibody, combining neuroprotective effects and ability to promote Aβ engulfment by microglia with limited microglial activation.
Rat cortical cultures enriched for microglia (>60% Iba1^+ of total DAPI^+ cells) were treated with 10 μM Aβ1-42 oligomers with or without 100 μg/mL antibodies for 6 h and 24 h. LPS (Sigma) at 1 μg/mL was used as a positive control stimulus. […]

The values that follow come from patent publication US9221900B2, “Methods for identifying safe and functional humanized antibodies” (AC IMMUNE S.A., priority 2010, dated 2015).

Aβ1-42 binding to recombinant human ApoE4, sequence (P05067 672-713 limits assumed): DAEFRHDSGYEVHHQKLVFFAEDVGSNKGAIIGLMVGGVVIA
Aβ1-42 (Homo sapiens, UniProt P05067), sequence (P05067 672-713): as the sequence (P05067 672-713 limits assumed) above

As for “MABT: humanized anti-Aβ monoclonal antibody of IgG4 isotype, affinity matured and humanized form of mouse mMABT”, in data set [1], the “neuronal morphology after Aβ1-42 treatment” value is “appeared similar to control cells”. In data set [2], the “binding to amyloid plaques” value is “immunodecorated”. Moreover, the “binding to Aβ plaques” value in data set [3] is “immunodecorated”. Further, the “binding to different Aβ peptides” value with Aβ1-42 [4] is “bound with high affinity”. Moreover, the “binding to different Aβ1-42 peptide preparations” value in the data set with Aβ1-42 [5] was “highly comparable among the different Aβ1-42 assembly states”. Moreover, in data set [6], the “inhibition of the Aβ1-42 and ApoE4 interaction” value is on record as “over 80%”. Besides, in the data set on enriched microglia, the “release of TNFα by enriched microglia treated with Aβ1-42 oligomers” value is “greatest effect”.
